Laboratory results published in US20250057963A1, “DISCOVERY OF PIPERLONGUMINE AS A NOVEL E3 LIGASE LIGAND” (University of Florida Research Foundation, Incorporated, priority 2021, published 2025).

How the values were obtained:
[1] = test system: c-Myc and MCl-1; assay: c-Myc and MCL-1 expression in MOLT4 cells (qPCR and immunoblot); format: cell-based, Human
Description: Cells were collected and lysed in RIPA lysis buffer (Cat. #BP-115DG, Boston Bio Products, Ashland, MA, USA) supplemented with protease and phosphatase inhibitor cocktails (Cat. #PPC1010, Sigma-Aldrich, St. Louis, MO, USA). Protein samples were made and immunoblotting was performed as described previously (Khan et al., 2019; Lv et al., 2021). Antibodies purchased from Cell Signaling Technologies (CST) and the dilutions are as follows: Biotin (Cat. No. 5571S, 1:1000), PARP (Cat. No. 9542S, 1:1000), c-Myc (Cat. No. 5605S, 1:1000), MCL1 (Cat. No. 5453S, 1:1000), and ALK (Cat. No. 3791S, 1:1000). KEAP1 antibody was purchased from Proteintech (Cat. No. 10503-2-AP, 1:1000). CDK9 antibody was purchased from Santa Cruz (Cat. No. sc-13130, 1:500). V5-tag antibody was purchased from Bethyl (Cat. No. A190-120P, 1:1000). j-actin antibody was purchased from MP Biomedicals (Cat. No. 8691001, 1:20 000).
Total RNA was extracted as mentioned above. Reverse transcription and quantitative PCR (qPCR) was performed as described in our previous study (Lv et al., 2021). Primers used for measuring gene transcriptional level: GAPDH primers (forward 5′-[…]-3′ and reverse 5′-[…]-3′) were described previously (Zhang et al., 2018b). MCL1 primers are forward 5′-[…]-3′ and reverse 5′-[…]-3′; MYC primers are forward 5′-[…]-3′ and reverse 5′-[…]-3′.

[2] = target: CDK9 (Homo sapiens, UniProt P50750); assay: CDK9 degradation in 293T and K562 cells (immunoblot); format: cell-based; design: endogenous in cells; host or cells: MOLT4, 293T, K562, NCI-H1299, LNCaP
Sequence of CDK9 (P50750 whole entry): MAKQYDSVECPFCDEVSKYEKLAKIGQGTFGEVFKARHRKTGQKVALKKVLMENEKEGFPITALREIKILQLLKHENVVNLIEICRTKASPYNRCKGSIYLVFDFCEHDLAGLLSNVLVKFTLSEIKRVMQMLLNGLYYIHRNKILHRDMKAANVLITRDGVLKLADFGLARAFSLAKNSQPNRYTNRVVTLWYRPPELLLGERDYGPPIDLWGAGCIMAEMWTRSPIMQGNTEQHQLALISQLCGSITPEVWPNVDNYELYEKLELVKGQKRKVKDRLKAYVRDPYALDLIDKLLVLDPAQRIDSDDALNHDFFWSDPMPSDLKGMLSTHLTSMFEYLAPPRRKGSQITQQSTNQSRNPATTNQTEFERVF
Description: Human T-ALL MOLT4 (Cat. No. CRL-1582), K562 (Cat. No. CCL-243), NCI-H1299 (Cat. No. CRL-5803), NCI-H2228 (Cat. No. CRL-5935), LNCaP (Cat. No. CRL-1740), 22RV1 (Cat. No. CRL-2505), PC3 (Cat. No. CRL-1435), DU145 (Cat. No. HTB-81), and epithelial kidney HEK 293T (293T, Cat. No. ACS-4500) cell lines were recently purchased from American Type Culture Collection (ATCC, Manassas, VA, USA). MOLT4, K562, NCI—H-1299, NCI-H2228, LNCap, and 22RV 1 cell lines were cultured in RPMI 1640 medium (Cat No. 22400-089, Thermo Fisher Scientific, Waltham, MA, USA) supplemented with 10% (v/v) heat-inactivated fetal bovine serum (FBS, Cat. No. S11150H, Atlanta Biologicals, Flowery Branch, GA, USA), 100 U/mL penicillin and 100 pig/mL streptomycin (Pen-Strep, Cat. No. 15140122, Thermo Fisher Scientific). PC3 cells were cultured in complete F—12K medium (Kaighn's modification of Ham's F-12 medium, Cat. No. 30-2004, ATCC) supplemented with 10% (v/v) heat-inactivated FBS, 100 U/mL penicillin, and 100 μg/mL streptomycin. DU145 cells were cultured in complete Eagle's Minimum Essential Medium (EMEM, Cat. No. 30-2003, ATCC) supplemented with 10% (v/v) heat-inactivated FBS, 100 U/mL penicillin, and 100 μg/mL streptomycin. 293T cells were cultured in complete Dulbecco's modified Eagle medium (DMEM, Cat. No. 12430054, Thermo Fisher Scientific) with 10% (v/v) heat-inactivated FBS, 100 U/mL penicillin, and 100 μg/mL streptomycin. All the cell lines were maintained in a humidified incubator at 37° C. and 5% CO2.
Cells were collected and lysed in RIPA lysis buffer (Cat. #BP-115DG, Boston Bio Products, Ashland, MA, USA) supplemented with protease and phosphatase inhibitor cocktails (Cat. #PPC1010, Sigma-Aldrich, St. Louis, MO, USA). Protein samples were made and immunoblotting was performed as described previously (Khan et al., 2019; Lv et al., 2021). […]
Immunoblot data were quantified using the ImageJ (v 1.53a) software from NIH. […]

[3] = target: T1, purified KEAP1 protein (Homo sapiens, UniProt Q14145); assay: Gel-based competitive ABPP assay with IA-alkyne; format: binding; conditions: purified His-KEAP1, serially diluted 955
T1 construct: made in house; host or cells: bacterial cells grown in LB and induced with IPTG
T1 sequence (Q14145 whole entry): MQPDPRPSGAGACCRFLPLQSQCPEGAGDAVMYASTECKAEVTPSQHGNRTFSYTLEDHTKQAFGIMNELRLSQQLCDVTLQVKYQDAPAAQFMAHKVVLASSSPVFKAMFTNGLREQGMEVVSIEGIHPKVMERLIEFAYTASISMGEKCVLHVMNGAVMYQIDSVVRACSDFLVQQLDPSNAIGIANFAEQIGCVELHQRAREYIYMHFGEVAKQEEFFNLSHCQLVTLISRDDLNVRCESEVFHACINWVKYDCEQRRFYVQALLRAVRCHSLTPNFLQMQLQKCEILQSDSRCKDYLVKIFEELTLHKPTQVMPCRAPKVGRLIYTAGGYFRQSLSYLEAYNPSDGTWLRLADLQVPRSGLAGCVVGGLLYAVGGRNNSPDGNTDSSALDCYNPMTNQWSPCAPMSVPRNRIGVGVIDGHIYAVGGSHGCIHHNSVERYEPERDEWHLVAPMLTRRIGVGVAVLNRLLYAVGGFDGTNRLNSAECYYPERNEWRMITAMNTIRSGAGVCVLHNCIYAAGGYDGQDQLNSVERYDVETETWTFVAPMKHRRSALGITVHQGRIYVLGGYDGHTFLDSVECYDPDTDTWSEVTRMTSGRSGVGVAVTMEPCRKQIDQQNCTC
Description: The plasmid pet28a-His6-Keap1 for expressing His-KEAP1 was purchased from Addgene (a gift from Yimon Aye, plasmid #62454). To purify His-KEAP1, the plasmid transformed cells were grown in LB broth at 37° C. with shaking until the optical density at 600 nm reached 0.6-0.7. Isopropyl-β-D-thiogalactopyranoside (1 mM) was added to induce protein expression overnight at 16° C. Cell pellet was resuspended in lysis buffer [50 mM Tris-Hcl (pH 7.5), 150 mM NaCl, 1 mM EDTA, 0.05% NP-40, […], lx protease inhibitor, and 1 mM DTT] and lysed using sonication. The lysate was cleared by centrifugation at 20,000×g for 30 min at 4° C. and purified by using GE Healthcare His GraviTrap™ Kit (Cat. No. 45-002-016, Fisher Scientific). After elution, the proteins were concentrated by using Pierce Protein Concentrators PES, 30K MWCO (Cat. No. 88502, ThermoFisher) and then dialyzed into the buffer containing 50 mM HEPES, 150 mM NaCl, and 0.1 mM EDTA (pH 7.5).
A gel-based ABPP assay was performed as previously described with some modifications (Ward et al., 2019). Briefly, Purified His-KEAP1 ([…]) was diluted into 50 μL of PBS and 0.5 μL of either DMSO (vehicle) or indicated compound was added to incubate at 25° C. for 1 h, then the samples were treated with 20 µM IA-Alkyne (Cat. No. 7015, Tocris, prepared in DMSO) at 25° C. for 1 h. […]

- dependence of 955-induced CDK9 degradation on the UPS ([2]; 293T and K562 cells, MG132, bortezomib, MLN4924 pre-treatment): UPS dependent manner
- CDK9 degradation in 293T cells ([2]; 293T cells, 0.1 μM or 1 μM 955): time and dose dependent manner
- CDK9 degradation in K562 cells ([2]; K562 cells, 0.1 μM 955): time and dose dependent manner
- competition with IA-alkyne for covalent binding to KEAP1 [3]: concentration-dependent manner
SMILES: COc1cc(/C=C/C(=O)N2CCC=CC2=O)cc(OC)c1OCCN1CCN(C(=O)CN2CCC(C(=O)Nc3ncc(SCc4ncc(C(C)(C)C)o4)s3)CC2)CC1 [compound 955, (E)-N-(5-(((5-(tert-butyl)oxazol-2-yl)methyl)thio)thiazol-2-yl)-1-(2-(4-(2-(2,6-dimethoxy-4-(3-oxo-3-(6-oxo-3,6-dihydropyridin-1(2H)-yl)prop-1-en-1-yl)phenoxy)ethyl)piperazin-1-yl)-2-oxoethyl)piperidine-4-carboxamide]
- effectiveness relative to SNS-032 in downregulating c-Myc and MCl-1 (mRNA and protein) [1]: ~10 times
- potency relative to SNS-032 in downregulation of c-Myc and MCl-1 (mRNA and protein) [1]: about 10 fold
